Reference: US20240002391A1, “4-ALKOXYPYRROLO[2,1-F][1,2,4]TRIAZINES AND PREPARATION AND USES THEREOF” (BioSplice Therapeutics, Inc., priority 2022, published 2024)

Biological target: recombinant DYRK1A kinase (Homo sapiens (Human), UniProt Q13627)
Test: DYRK1A kinase assay (Ser/Thr 18 peptide Z-lyte FRET)
Type: biochemical
Conditions: DYRK1A kinase activity, Z-lyte Ser/Thr 18 peptide, 15 μM ATP; method text calls the value IC50; read-out: EC50 (the source's name)
In short: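 Z-lyte FRET read-out: coumarin (Em 455) over fluorescein (Em 520) emission ratio, converted to percent phosphorylation after 1 h development. Reaction: 0.25 μg/mL kinase, 15 μM ATP, 4 μM peptide, 1 h RT with compound, duplicate wells. IC50s fitted by non-linear regression.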

With `COc1nc(N[C@H]2C[C@H](C(C)(C)O)C2)nn2ccc(-c3ccc4nccnc4c3)c12` [Compound 328, 2-(trans-3-((4-Methoxy-5-(quinoxalin-6-yl)pyrrolo[2,1-f][1,2,4]triazin-2-yl)amino)cyclobutyl)propan-2-ol] the IC50 was 5.4 nM.
For `COc1nc(N[C@H]2C[C@](C)(C(=O)NC3CC3)C2)nn2ccc(-c3ccc4nc(C)n(CC(F)F)c4c3)c12` [Compound 503, trans-N-Cyclopropyl-3-((5-(1-(2,2-difluoroethyl)-2-methyl-1H-benzo[d]imidazol-6-yl)-4-methoxypyrrolo[2,1-f][1,2,4]triazin-2-yl)amino)-1-methylcyclobutane-1-carboxamide], the IC50 was 2.3 nM.
`COc1nc(NC2CCN(C3COC3)CC2)nn2ccc(-c3ccc4nnn(CC(F)F)c4c3)c12` [Compound 750, 5-(1-(2,2-Difluoroethyl)-1H-benzo[d][1,2,3]triazol-6-yl)-4-methoxy-N-(1-(oxetan-3-yl)piperidin-4-yl)pyrrolo[2,1-f][1,2,4]triazin-2-amine] showed an IC50 of 0.3 nM.
`COc1nc(N[C@H]2C[C@@](C)(C(=O)N(C)C)C2)nn2ccc(-c3ccc4nnn(C)c4c3)c12` [Compound 211, cis-3-((4-Methoxy-5-(1-methyl-1H-benzo[d][1,2,3]triazol-6-yl)pyrrolo[2,1-f][1,2,4]triazin-2-yl)amino)-N,N,1-trimethylcyclobutane-1-carboxamide] gave an IC50 of 6.6 nM.
`COc1nc(N[C@H]2CC[C@H](NC(C)=O)CC2)nn2ccc(-c3ccc4nccnc4c3)c12` [Compound 344, N-(trans-4-((4-Methoxy-5-(quinoxalin-6-yl)pyrrolo[2,1-f][1,2,4]triazin-2-yl)amino)cyclohexyl)acetamide] was tested, and the IC50 was 1.8 nM.
For `COc1nc(NC2CCN(CC(F)F)CC2)nn2ccc(-c3ccc4nccn4c3)c12` [Compound 61, N-(1-(2,2-Difluoroethyl)piperidin-4-yl)-5-(imidazo[1,2-a]pyridin-6-yl)-4-methoxypyrrolo[2,1-f][1,2,4]triazin-2-amine], the IC50 was 4.9 nM.
For `COc1nc(N[C@H]2CC[C@@](C)(O)CC2)nn2ccc(-c3ccc4nccnc4c3)c12` [Compound 345, cis-4-((4-Methoxy-5-(quinoxalin-6-yl)pyrrolo[2,1-f][1,2,4]triazin-2-yl)amino)-1-methylcyclohexan-1-ol], the IC50 was 3.7 nM.
`C[C@]1(O)CC[C@H](Nc2nc(O)c3c(-c4ccc5nccnc5c4)ccn3n2)CC1` [Compound 346, 2-((trans-4-Hydroxy-4-methylcyclohexyl)amino)-5-(quinoxalin-6-yl)pyrrolo[2,1-f][11,2,4]triazin-4-ol] gave an IC50 of 34.4 nM.
In the case of `COc1nc(N[C@H]2C[C@](C)(NC(C)=O)C2)nn2ccc(-c3ccc4nc(C)n(CCO)c4c3)c12` [Compound 171, N-(trans-3-((5-(1-(2-Hydroxyethyl)-2-methyl-1H-benzo[d]imidazol-6-yl)-4-methoxypyrrolo[2,1-f][1,2,4]triazin-2-yl)amino)-1-methylcyclobutyl)acetamide], the IC50 is reported as 2.9 nM.
`[2H]C([2H])([2H])O[C@H]1CC[C@@H](Nc2nc(OC)c3c(-c4cnc5nccn5c4)ccn3n2)CC1` [Compound 245, 5-(Imidazo[1,2-a]pyrimidin-6-yl)-4-methoxy-N-(cis-4-(methoxy-d3)cyclohexyl)pyrrolo[2,1-f][1,2,4]triazin-2-amine] was tested, and the IC50 was 0.7 nM.
Work on `COc1nc(N[C@H]2CC[C@](C)(O)CC2)nn2ccc(-c3cc(F)c4nnn(CC(F)F)c4c3)c12` [Compound 811, (1r,4r)-4-((5-(1-(2,2-Difluoroethyl)-4-fluoro-1H-benzo[d][1,2,3]triazol-6-yl)-4-methoxypyrrolo[2,1-f][1,2,4]triazin-2-yl)amino)-1-methylcyclohexan-1-ol] yielded an IC50 of 1.7 nM.
`COc1nc(N[C@@H]2CCCOC2)nn2ccc(-c3cnc4nccn4c3)c12` [Compound 975, (R)-5-(Imidazo[1,2-a]pyrimidin-6-yl)-4-methoxy-N-(tetrahydro-2H-pyran-3-yl)pyrrolo[2,1-f][1,2,4]triazin-2-amine] gave an IC50 of 7.6 nM.
`COc1nc(N[C@H]2CCN(C3COC3)C[C@H]2F)nn2ccc(-c3ccc4nnn(C(C)C)c4c3)c12` [Compound 688, N-((3R,4S)-3-fluoro-1-(oxetan-3-yl)piperidin-4-yl)-5-(1-isopropyl-1H-benzo[d][1,2,3]triazol-6-yl)-4-methoxypyrrolo[2,1-f][1,2,4]triazin-2-amine] gave an IC50 of 2.3 nM.
`COc1nc(N[C@H](C)C2COC2)nn2ccc(-c3cnc4nccn4c3)c12` [Compound 927, (R)-5-(Imidazo[1,2-a]pyrimidin-6-yl)-4-methoxy-N-(1-(oxetan-3-yl)ethyl)pyrrolo[2,1-f][1,2,4]triazin-2-amine] gave an IC50 of 1.2 nM.
`COc1nc(N[C@H]2C[C@@H](OCCO)C2)nn2ccc(-c3ccn4nccc4c3)c12` [Compound 6, 2-(cis-3-((4-Methoxy-5-(pyrazolo[1,5-a]pyridin-5-yl)pyrrolo[2,1-f][1,2,4]triazin-2-yl)amino)cyclobutoxy)ethan-1-ol] showed an IC50 of 1.1 nM.
Compound `COc1nc(N[C@H]2C[C@](C)(NC(C)=O)C2)nn2ccc(-c3ccn4nccc4c3)c12` [Compound 96, N-(trans-3-((4-Methoxy-5-(pyrazolo[1,5-a]pyridin-5-yl)pyrrolo[2,1-f][1,2,4]triazin-2-yl)amino)-1-methylcyclobutyl)acetamide] has an IC50 of 1 nM.
`COc1nc(NC2CC3(CCN(C(C)=O)CC3)C2)nn2ccc(-c3ccc4nccnc4c3)c12` [Compound 386, 1-(2-((4-Methoxy-5-(quinoxalin-6-yl)pyrrolo[2,1-f][1,2,4]triazin-2-yl)amino)-7-azaspiro[3.5]nonan-7-yl)ethan-1-one] gave an IC50 of 0.9 nM.
`COc1nc(N[C@H]2CC[C@@](C)(O)CC2)nn2ccc(-c3ccn4nccc4c3)c12` [Compound 19, cis-4-((4-Methoxy-5-(pyrazolo[1,5-a]pyridin-5-yl)pyrrolo[2,1-f][1,2,4]triazin-2-yl)amino)-1-methylcyclohexan-1-ol] showed an IC50 of 14.1 nM.
In the case of `COc1nc(N[C@@H]2CN(C(C)=O)C[C@@H]2F)nn2ccc(-c3cnc4nccn4c3)c12` [Compound 264, 1-((3S,4R)-3-Fluoro-4-((5-(imidazo[1,2-a]pyrimidin-6-yl)-4-methoxypyrrolo[2,1-f][1,2,4]triazin-2-yl)amino)pyrrolidin-1-yl)ethan-1-one], the IC50 is reported as 3.5 nM.
`COc1nc(N[C@H]2C[C@](C)(NC(C)=O)C2)nn2ccc(-c3cc(F)c4nnn(CC(F)F)c4c3)c12` [Compound 806, N-((1r,3r)-3-((5-(1-(2,2-Difluoroethyl)-4-fluoro-1H-benzo[d][1,2,3]triazol-6-yl)-4-methoxypyrrolo[2,1-f][1,2,4]triazin-2-yl)amino)-1-methylcyclobutyl)acetamide] gave an IC50 of 1.4 nM.
`COc1nc(N[C@H]2CCNC[C@H]2F)nn2ccc(-c3ccn4nccc4c3)c12` [Compound 30, N-((3R,4S)-3-Fluoropiperidin-4-yl)-4-methoxy-5-(pyrazolo[1,5-a]pyridin-5-yl)pyrrolo[2,1-f][1,2,4]triazin-2-amine] showed an IC50 of 22.1 nM.
For `COc1nc(N[C@@H]2CCN(C)CC2(F)F)nn2ccc(-c3ccc4nnn(CC(F)F)c4c3)c12` [Compound 777, (R)—N-(3,3-Difluoro-1-methylpiperidin-4-yl)-5-(1-(2,2-difluoroethyl)-1H-benzo[d][1,2,3]triazol-6-yl)-4-methoxypyrrolo[2,1-f][1,2,4]triazin-2-amine], the IC50 was 1.6 nM.
With `COc1nc(N[C@@H]2CCN(C3COC3)CC2(F)F)nn2ccc(-c3ccc4ncnn4c3)c12` [Compound 578, (R)-5-([1,2,4]Triazolo[1,5-a]pyridin-6-yl)-N-(3,3-difluoro-1-(oxetan-3-yl)piperidin-4-yl)-4-methoxypyrrolo[2,1-f][1,2,4]triazin-2-amine] the IC50 was 8 nM.
Work on `COc1nc(NC2CCC(C)(C)CC2)nn2ccc(-c3cnc4nccn4c3)c12` [Compound 947, N-(4,4-Dimethylcyclohexyl)-5-(imidazo[1,2-a]pyrimidin-6-yl)-4-methoxypyrrolo[2,1-f][1,2,4]triazin-2-amine] yielded an IC50 of 2.2 nM.
Compound `C[C@]1(O)CC[C@H](Nc2nc(OCC(F)F)c3c(-c4ccc5nccnc5c4)ccn3n2)CC1` [Compound 1130, (1r,4r)-4-((4-(2,2-Difluoroethoxy)-5-(quinoxalin-6-yl)pyrrolo[2,1-f][1,2,4]triazin-2-yl)amino)-1-methylcyclohexan-1-ol] has an IC50 of 0.8 nM.
`COc1nc(N[C@H]2CC[C@](C)(O)CC2)nn2ccc(-c3ccc4ncc(C#N)n4c3)c12` [Compound 103, 6-(2-((trans-4-hydroxy-4-methylcyclohexyl)amino)-4-methoxypyrrolo[2,1-f][1,2,4]triazin-5-yl)imidazo[1,2-a]pyridine-3-carbonitrile] was tested, and the IC50 was 5.9 nM.
For `COc1nc(NC2CCN(C(C)=O)CC2)nn2ccc(-c3ccc4nccn4c3)c12` [Compound 63, 1-(4-((5-(Imidazo[1,2-a]pyridin-6-yl)-4-methoxypyrrolo[2,1-f][1,2,4]triazin-2-yl)amino)piperidin-1-yl)ethan-1-one], the IC50 was 4.6 nM.
In the case of `COc1nc(N[C@H]2C[C@](C)(NC(C)=O)C2)nn2ccc(-c3cc(F)c4nc(C)n(CC(F)F)c4c3)c12` [Compound 149, N-((1r,3r)-3-((5-(1-(2,2-Difluoroethyl)-4-fluoro-2-methyl-1H-benzo[d]imidazol-6-yl)-4-methoxypyrrolo[2,1-f][1,2,4]triazin-2-yl)amino)-1-methylcyclobutyl)acetamide], the IC50 is reported as 1.5 nM.
Work on `COc1nc(N[C@H]2CC[C@](C)(O)CC2)nn2ccc(-c3ccc4nnn(/C=C/F)c4c3)c12` [Compound 672, (1r,4r)-4-((5-(1-((E)-2-fluorovinyl)-1H-benzo[d][1,2,3]triazol-6-yl)-4-methoxypyrrolo[2,1-f][1,2,4]triazin-2-yl)amino)-1-methylcyclohexan-1-ol] yielded an IC50 of 5.9 nM.
For `COc1nc(N[C@@H]2CCN(C)C[C@@H]2F)nn2ccc(-c3cnc4nccn4c3)c12` [Compound 267, N-((3S,4R)-3-Fluoro-1-methylpiperidin-4-yl)-5-(imidazo[1,2-a]pyrimidin-6-yl)-4-methoxypyrrolo[2,1-f][1,2,4]triazin-2-amine], the IC50 was 4.8 nM.
